From article PMC5392334, “Discovery and characterization of a novel irreversible EGFR mutants selective and potent kinase inhibitor CHMFL-EGFR-26 with a distinct binding mode” (Oncotarget, 2017)

What was measured:
EGFR = molecular target: T1, EGFR (Homo sapiens, UniProt P00533); assay: KinomeScan; type: binding; conditions: read-out: % control
T1 construct: purchased DiscoveRx KINOMEscan

[1] = tested on: BaF3-TEL-EGFR-L858R-C797S; assay: Anti-proliferation, BaF3 isogenic cell lines (CellTiter-Glo); type: cell-based; conditions: Mus musculus, 72 hours, triplet testing
PDGFRA = molecular target: T2, PDGFRA (Homo sapiens, UniProt P16234); assay: KinomeScan; type: binding; conditions: read-out: % control
T2 construct: purchased DiscoveRx KINOMEscan

CDK8 = molecular target: T3, CDK8 (Homo sapiens, UniProt P49336); assay: KinomeScan; type: binding; conditions: read-out: % control
T3 construct: purchased DiscoveRx KINOMEscan

CDK7 = molecular target: T4, CDK7 (Homo sapiens, UniProt P50613); assay: KinomeScan; type: binding; conditions: read-out: % control
T4 construct: purchased DiscoveRx KINOMEscan

RIOK2 = molecular target: T5, RIOK2 (Homo sapiens, UniProt Q9BVS4); assay: KinomeScan; type: binding; conditions: read-out: % control
T5 construct: purchased DiscoveRx KINOMEscan

NEK3 = molecular target: T6, NEK3 (Homo sapiens, UniProt P51956); assay: KinomeScan; type: binding; conditions: read-out: % control
T6 construct: purchased DiscoveRx KINOMEscan

LTK = molecular target: T7, LTK (Homo sapiens, UniProt P29376); assay: KinomeScan; type: binding; conditions: read-out: % control
T7 construct: purchased DiscoveRx KINOMEscan

FGFR3(G697C) = molecular target: T8, FGFR3(G697C) (Homo sapiens, UniProt P22607, G697C); assay: KinomeScan; type: binding; conditions: read-out: % control
T8 construct: purchased DiscoveRx KINOMEscan

TTK = molecular target: T9, TTK (Homo sapiens, UniProt P33981); assay: KinomeScan; type: binding; conditions: read-out: % control
T9 construct: purchased DiscoveRx KINOMEscan

PIK3C2B = molecular target: T10, PIK3C2B (Homo sapiens, UniProt O00750); assay: KinomeScan; type: binding; conditions: read-out: % control
T10 construct: purchased DiscoveRx KINOMEscan

AURKC = molecular target: T11, AURKC (Homo sapiens, UniProt Q9UQB9); assay: KinomeScan; type: binding; conditions: read-out: % control
T11 construct: purchased DiscoveRx KINOMEscan

MEK6 = molecular target: T12, MEK6 (Homo sapiens, UniProt P52564); assay: KinomeScan; type: binding; conditions: read-out: % control
T12 construct: purchased DiscoveRx KINOMEscan

CTK = molecular target: T13, CTK (Homo sapiens, UniProt P42679); assay: KinomeScan; type: binding; conditions: read-out: % control
T13 construct: purchased DiscoveRx KINOMEscan

PIK3CA(E542K) = molecular target: T14, PIK3CA(E542K) (Homo sapiens, UniProt P42336, E542K); assay: KinomeScan; type: binding; conditions: read-out: % control
T14 construct: purchased DiscoveRx KINOMEscan

PIKFYVE = molecular target: T15, PIKFYVE (Homo sapiens, UniProt Q9Y2I7); assay: KinomeScan; type: binding; conditions: read-out: % control
T15 construct: purchased DiscoveRx KINOMEscan

PRKG1 = molecular target: T16, PRKG1 (Homo sapiens, UniProt Q13976); assay: KinomeScan; type: binding; conditions: read-out: % control
T16 construct: purchased DiscoveRx KINOMEscan

[2] = molecular target: T17, ABL1(F317I)-nonphosphorylated (Homo sapiens, UniProt P00519, F317I); assay: KinomeScan; type: binding; conditions: read-out: % control
T17 construct: purchased DiscoveRx KINOMEscan

MARK2 = molecular target: T18, MARK2 (Homo sapiens, UniProt Q7KZI7); assay: KinomeScan; type: binding; conditions: read-out: % control
T18 construct: purchased DiscoveRx KINOMEscan

[3] = molecular target: T19, JAK3(JH1domain-catalytic) (Homo sapiens, UniProt P52333); assay: KinomeScan; type: binding; conditions: read-out: % control
T19 construct: JAK3(JH1domain-catalytic); purchased DiscoveRx KINOMEscan

TLK1 = molecular target: T20, TLK1 (Homo sapiens, UniProt Q9UKI8); assay: KinomeScan; type: binding; conditions: read-out: % control
T20 construct: purchased DiscoveRx KINOMEscan

MERTK = molecular target: T21, MERTK (Homo sapiens, UniProt Q12866); assay: KinomeScan; type: binding; conditions: read-out: % control
T21 construct: purchased DiscoveRx KINOMEscan

TESK1 = molecular target: T22, TESK1 (Homo sapiens, UniProt Q15569); assay: KinomeScan; type: binding; conditions: read-out: % control
T22 construct: purchased DiscoveRx KINOMEscan

PRKD3 = molecular target: T23, PRKD3 (Homo sapiens, UniProt O94806); assay: KinomeScan; type: binding; conditions: read-out: % control
T23 construct: purchased DiscoveRx KINOMEscan

PRKD2 = molecular target: T24, PRKD2 (Homo sapiens, UniProt Q9BZL6); assay: KinomeScan; type: binding; conditions: read-out: % control
T24 construct: purchased DiscoveRx KINOMEscan

PRKX = molecular target: T25, PRKX (Homo sapiens, UniProt P51817); assay: KinomeScan; type: binding; conditions: read-out: % control
T25 construct: purchased DiscoveRx KINOMEscan

CDK4 = molecular target: T26, CDK4 (Homo sapiens, UniProt P11802); assay: KinomeScan; type: binding; conditions: read-out: % control
T26 construct: purchased DiscoveRx KINOMEscan

ALK(C1156Y) = molecular target: T27, ALK(C1156Y) (Homo sapiens, UniProt Q9UM73, C1156Y); assay: KinomeScan; type: binding; conditions: read-out: % control
T27 construct: purchased DiscoveRx KINOMEscan

PKAC-beta = molecular target: T28, PKAC-beta (Homo sapiens, UniProt P22694); assay: KinomeScan; type: binding; conditions: read-out: % control
T28 construct: purchased DiscoveRx KINOMEscan

T24 sequence (Q9BZL6 whole entry): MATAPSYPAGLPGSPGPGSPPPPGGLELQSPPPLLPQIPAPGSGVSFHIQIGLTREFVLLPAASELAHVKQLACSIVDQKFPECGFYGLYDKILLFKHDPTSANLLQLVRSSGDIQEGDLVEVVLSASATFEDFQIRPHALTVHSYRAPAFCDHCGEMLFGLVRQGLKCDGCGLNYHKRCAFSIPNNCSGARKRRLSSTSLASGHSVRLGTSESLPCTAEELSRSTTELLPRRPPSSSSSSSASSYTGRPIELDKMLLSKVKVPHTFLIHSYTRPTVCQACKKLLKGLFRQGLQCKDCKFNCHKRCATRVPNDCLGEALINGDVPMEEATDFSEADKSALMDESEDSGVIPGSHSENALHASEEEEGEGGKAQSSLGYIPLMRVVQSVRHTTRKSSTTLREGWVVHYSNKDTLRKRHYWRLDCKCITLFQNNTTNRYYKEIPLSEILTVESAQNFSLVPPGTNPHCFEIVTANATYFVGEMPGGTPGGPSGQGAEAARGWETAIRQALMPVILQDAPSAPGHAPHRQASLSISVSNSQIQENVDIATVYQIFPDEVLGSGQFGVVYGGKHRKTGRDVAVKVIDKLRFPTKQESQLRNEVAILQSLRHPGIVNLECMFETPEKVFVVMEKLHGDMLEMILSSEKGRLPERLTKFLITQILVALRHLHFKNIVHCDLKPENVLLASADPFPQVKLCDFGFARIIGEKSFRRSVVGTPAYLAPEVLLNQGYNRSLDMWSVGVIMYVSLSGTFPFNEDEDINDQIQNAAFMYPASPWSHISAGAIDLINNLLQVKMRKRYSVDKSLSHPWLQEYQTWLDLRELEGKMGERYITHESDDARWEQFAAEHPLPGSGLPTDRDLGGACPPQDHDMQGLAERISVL
T26 sequence (P11802 whole entry): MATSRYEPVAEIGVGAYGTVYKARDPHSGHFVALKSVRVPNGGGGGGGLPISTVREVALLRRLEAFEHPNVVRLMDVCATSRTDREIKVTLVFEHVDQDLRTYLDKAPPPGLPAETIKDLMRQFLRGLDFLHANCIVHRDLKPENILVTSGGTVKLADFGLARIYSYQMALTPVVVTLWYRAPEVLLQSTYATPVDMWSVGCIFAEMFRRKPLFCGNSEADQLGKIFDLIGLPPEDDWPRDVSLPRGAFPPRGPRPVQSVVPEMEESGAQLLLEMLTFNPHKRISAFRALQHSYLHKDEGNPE
T2 sequence (P16234 24-1089): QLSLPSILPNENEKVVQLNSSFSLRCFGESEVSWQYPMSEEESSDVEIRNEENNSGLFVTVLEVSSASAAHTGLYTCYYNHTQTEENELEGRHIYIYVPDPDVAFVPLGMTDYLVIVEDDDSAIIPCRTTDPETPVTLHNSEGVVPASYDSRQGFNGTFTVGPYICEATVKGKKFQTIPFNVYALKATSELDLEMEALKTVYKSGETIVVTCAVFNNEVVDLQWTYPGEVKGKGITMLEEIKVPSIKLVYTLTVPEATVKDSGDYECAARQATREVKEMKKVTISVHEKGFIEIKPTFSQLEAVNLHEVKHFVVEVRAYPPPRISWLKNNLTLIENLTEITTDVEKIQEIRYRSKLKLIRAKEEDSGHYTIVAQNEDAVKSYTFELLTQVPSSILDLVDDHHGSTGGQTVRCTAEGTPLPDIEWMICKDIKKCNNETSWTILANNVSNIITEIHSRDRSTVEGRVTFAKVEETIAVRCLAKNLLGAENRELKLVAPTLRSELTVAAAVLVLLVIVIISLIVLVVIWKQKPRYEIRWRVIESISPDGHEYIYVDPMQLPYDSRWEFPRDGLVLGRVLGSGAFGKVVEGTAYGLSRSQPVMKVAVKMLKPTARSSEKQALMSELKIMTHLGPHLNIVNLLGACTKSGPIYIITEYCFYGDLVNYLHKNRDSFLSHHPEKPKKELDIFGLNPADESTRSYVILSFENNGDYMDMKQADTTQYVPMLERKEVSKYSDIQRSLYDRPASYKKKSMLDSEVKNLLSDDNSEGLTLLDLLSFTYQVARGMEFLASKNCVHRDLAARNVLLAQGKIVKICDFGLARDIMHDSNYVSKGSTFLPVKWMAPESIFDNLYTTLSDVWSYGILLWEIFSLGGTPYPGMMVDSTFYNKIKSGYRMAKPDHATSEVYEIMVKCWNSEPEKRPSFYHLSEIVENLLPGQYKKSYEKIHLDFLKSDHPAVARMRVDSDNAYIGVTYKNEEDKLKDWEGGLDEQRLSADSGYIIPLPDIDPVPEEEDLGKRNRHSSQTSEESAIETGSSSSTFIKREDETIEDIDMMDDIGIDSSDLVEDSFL
T9 sequence (P33981 whole entry): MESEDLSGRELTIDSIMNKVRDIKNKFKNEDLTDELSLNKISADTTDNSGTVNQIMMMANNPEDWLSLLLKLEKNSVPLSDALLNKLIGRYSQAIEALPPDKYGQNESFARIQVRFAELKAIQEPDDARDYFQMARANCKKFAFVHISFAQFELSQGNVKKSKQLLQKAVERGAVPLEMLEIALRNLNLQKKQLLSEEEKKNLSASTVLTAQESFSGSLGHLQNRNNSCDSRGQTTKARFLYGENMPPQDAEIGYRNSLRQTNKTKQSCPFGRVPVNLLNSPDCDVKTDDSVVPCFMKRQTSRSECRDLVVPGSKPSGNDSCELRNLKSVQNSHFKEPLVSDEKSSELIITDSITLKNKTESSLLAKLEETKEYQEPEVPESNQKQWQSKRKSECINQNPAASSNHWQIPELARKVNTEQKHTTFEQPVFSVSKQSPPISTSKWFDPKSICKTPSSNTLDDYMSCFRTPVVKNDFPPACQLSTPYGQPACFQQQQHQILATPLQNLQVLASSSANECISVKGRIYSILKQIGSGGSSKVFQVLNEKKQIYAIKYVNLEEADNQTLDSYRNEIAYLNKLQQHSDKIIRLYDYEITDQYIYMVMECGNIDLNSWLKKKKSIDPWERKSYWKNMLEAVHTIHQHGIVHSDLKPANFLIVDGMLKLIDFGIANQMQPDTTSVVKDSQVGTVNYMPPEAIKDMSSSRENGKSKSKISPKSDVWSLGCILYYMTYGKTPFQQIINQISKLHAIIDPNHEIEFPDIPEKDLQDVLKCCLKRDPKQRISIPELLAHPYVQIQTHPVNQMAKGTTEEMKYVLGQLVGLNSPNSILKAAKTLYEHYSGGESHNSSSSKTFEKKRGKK
T16 sequence (Q13976 whole entry): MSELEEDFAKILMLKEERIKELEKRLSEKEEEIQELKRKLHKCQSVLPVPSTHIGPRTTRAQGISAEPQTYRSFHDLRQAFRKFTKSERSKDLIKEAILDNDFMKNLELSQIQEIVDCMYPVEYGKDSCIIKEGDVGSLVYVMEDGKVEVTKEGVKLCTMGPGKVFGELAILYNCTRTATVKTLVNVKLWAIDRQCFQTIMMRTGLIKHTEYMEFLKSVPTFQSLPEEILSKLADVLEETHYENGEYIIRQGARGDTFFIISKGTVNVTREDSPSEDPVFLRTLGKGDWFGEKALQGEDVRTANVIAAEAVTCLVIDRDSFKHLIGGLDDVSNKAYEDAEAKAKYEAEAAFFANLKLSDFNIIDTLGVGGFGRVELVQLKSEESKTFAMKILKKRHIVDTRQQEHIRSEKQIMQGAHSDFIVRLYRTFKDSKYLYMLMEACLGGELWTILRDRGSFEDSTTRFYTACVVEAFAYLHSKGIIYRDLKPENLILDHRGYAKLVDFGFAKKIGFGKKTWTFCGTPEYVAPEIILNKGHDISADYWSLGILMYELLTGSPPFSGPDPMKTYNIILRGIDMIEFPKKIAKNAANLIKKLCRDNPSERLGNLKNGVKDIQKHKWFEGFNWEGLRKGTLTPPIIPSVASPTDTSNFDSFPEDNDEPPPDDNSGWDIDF
T21 sequence (Q12866 21-999): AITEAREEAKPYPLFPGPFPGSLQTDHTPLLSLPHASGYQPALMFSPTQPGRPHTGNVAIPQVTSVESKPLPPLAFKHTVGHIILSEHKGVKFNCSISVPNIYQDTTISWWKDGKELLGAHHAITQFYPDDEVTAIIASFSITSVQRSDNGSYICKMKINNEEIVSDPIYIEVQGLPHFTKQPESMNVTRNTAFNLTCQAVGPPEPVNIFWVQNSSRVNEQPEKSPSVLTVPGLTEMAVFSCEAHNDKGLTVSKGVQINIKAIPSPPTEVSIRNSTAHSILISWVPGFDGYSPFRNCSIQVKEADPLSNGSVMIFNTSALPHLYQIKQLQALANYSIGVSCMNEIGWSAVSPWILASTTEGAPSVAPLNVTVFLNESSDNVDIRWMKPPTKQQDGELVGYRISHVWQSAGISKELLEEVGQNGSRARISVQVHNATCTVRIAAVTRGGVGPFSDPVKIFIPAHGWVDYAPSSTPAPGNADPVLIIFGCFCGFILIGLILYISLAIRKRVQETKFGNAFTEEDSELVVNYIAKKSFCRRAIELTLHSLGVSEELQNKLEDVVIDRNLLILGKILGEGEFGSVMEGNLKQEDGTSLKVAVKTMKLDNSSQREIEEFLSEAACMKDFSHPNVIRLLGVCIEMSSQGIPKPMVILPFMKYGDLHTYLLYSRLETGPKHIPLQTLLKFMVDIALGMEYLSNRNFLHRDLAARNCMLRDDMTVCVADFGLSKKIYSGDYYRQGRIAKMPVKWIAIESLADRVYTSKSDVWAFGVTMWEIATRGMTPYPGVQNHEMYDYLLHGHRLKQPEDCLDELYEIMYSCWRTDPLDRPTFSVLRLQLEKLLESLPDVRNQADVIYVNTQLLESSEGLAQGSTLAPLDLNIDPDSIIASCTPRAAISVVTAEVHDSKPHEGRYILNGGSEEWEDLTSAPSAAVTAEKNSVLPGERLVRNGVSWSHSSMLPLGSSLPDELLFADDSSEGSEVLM
T19 sequence (P52333 822-1124 limits assumed): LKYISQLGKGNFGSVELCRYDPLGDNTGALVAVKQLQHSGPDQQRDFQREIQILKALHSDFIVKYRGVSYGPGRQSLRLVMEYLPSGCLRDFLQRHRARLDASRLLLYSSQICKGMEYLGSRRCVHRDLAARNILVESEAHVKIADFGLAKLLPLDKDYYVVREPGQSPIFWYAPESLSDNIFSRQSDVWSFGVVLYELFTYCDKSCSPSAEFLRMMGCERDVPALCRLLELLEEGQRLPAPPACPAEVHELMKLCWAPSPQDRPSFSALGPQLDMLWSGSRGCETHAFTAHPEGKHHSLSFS

Molecule C=CC(=O)N1CCC[C@@H](n2nc(-c3ccc(OCc4cccc(C)n4)c(Cl)c3)c3c(N)ncnc32)C1 [CHMFL-EGFR-26] has a remaining binding at 1 µM (EGFR) of 0.8%, a GI50 [1] of 3.2 µM and a remaining binding at 1 µM (PDGFRA) of 100%. The remaining binding at 1 µM (CDK8) was 92%, the remaining binding at 1 µM (CDK7) was 100% and the remaining binding at 1 µM (RIOK2) was 100%. For the same molecule, the remaining binding at 1 µM (NEK3) was 83%, the remaining binding at 1 µM (LTK) was 94% and the remaining binding at 1 µM (FGFR3(G697C)) was 100%. The remaining binding at 1 µM (TTK) was 95%, the remaining binding at 1 µM (PIK3C2B) was 100% and the remaining binding at 1 µM (AURKC) was 87%. It also gave a remaining binding at 1 µM (MEK6) of 95%, a remaining binding at 1 µM (CTK) of 95% and a remaining binding at 1 µM (PIK3CA(E542K)) of 93%. The remaining binding at 1 µM (PIKFYVE) was 75%, the remaining binding at 1 µM (PRKG1) was 14% and the remaining binding at 1 µM [2] was 100%. The remaining binding at 1 µM (MARK2) was 95%, the remaining binding at 1 µM [3] was 0.7% and the remaining binding at 1 µM (TLK1) was 84%. The remaining binding at 1 µM (MERTK) was 79%, the remaining binding at 1 µM (TESK1) was 93% and the remaining binding at 1 µM (PRKD3) was 92%. The remaining binding at 1 µM (PRKD2) was 81%, the remaining binding at 1 µM (PRKX) was 81% and the remaining binding at 1 µM (CDK4) was 100%. It also gave a remaining binding at 1 µM (ALK(C1156Y)) of 100% and a remaining binding at 1 µM (PKAC-beta) of 14%.
